Source: the supplement of paper PMC4862054

Legend:
Conditions in all cases: incubation time: 72 h
HCC1937 [1] = assay: drug sensitivity score (DSS), CellTox Green (DSS (AUC-based score)); higher = stronger drug effect (viability inhibition or cytotoxicity); extreme values may be limits of the assay
Summary of the method: (§1)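 Breast cancer cell lines, seeded as 20 µl suspension, were incubated 72 h with compound in 384-well plates at 5 concentrations in 10-fold steps over a 10,000-fold range set for each compound. Fluorescence from CellTox Green was read at 485/520 nm before CellTiter-Glo luminescence, which was read after 10 min at room temperature. Every plate was normalised to 0.1 % DMSO and a positive kill control, and the drug sensitivity score was taken from the area under the fitted dose-response curve.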

CAL-85-1 = assay: as above
Summary of the method: as §1

DU-4475 = assay: as above
Summary of the method: as §1

MFM-223 [2] = assay: as above
Summary of the method: as §1

HDQ-P1 [3] = assay: as above
Summary of the method: as §1

CAL-148 [4] = assay: as above
Summary of the method: as §1

MDA-MB-231 = assay: as above
Summary of the method: as §1

MCF-10A [5] = assay: as above
Summary of the method: as §1

BT-474 = assay: as above
Summary of the method: as §1

MDA-MB-453 [6] = assay: as above
Summary of the method: as §1

CAL-51 [7] = assay: as above
Summary of the method: as §1

CAL-120 [8] = assay: as above
Summary of the method: as §1

HCC1143 = assay: as above
Summary of the method: as §1

BT-549 = assay: as above
Summary of the method: as §1

MDA-MB-436 = assay: as above
Summary of the method: as §1

HCC1599 = assay: as above
Summary of the method: as §1

MDA-MB-468 [9] = assay: as above
Summary of the method: as §1

Hs578T = assay: as above
Summary of the method: as §1

HCC1937 [10] = assay: drug sensitivity score (DSS), CellTiter-Glo (DSS (AUC-based score)); higher = stronger drug effect (viability inhibition or cytotoxicity); extreme values may be limits of the assay
Summary of the method: as §1

MFM-223 [11] = assay: as above
Summary of the method: as §1

HDQ-P1 [12] = assay: as above
Summary of the method: as §1

CAL-148 [13] = assay: as above
Summary of the method: as §1

MCF-10A [14] = assay: as above
Summary of the method: as §1

MDA-MB-453 [15] = assay: as above
Summary of the method: as §1

CAL-51 [16] = assay: as above
Summary of the method: as §1

CAL-120 [17] = assay: as above
Summary of the method: as §1

MDA-MB-468 [18] = assay: as above
Summary of the method: as §1

Row | SMILES | drug sensitivity score (HCC1937 [1]) | drug sensitivity score (CAL-85-1) | drug sensitivity score (DU-4475) | drug sensitivity score (MFM-223 [2]) | drug sensitivity score (HDQ-P1 [3]) | drug sensitivity score (CAL-148 [4]) | drug sensitivity score (MDA-MB-231) | drug sensitivity score (MCF-10A [5]) | drug sensitivity score (BT-474) | drug sensitivity score (MDA-MB-453 [6]) | drug sensitivity score (CAL-51 [7]) | drug sensitivity score (CAL-120 [8]) | drug sensitivity score (HCC1143) | drug sensitivity score (BT-549) | drug sensitivity score (MDA-MB-436) | drug sensitivity score (HCC1599) | drug sensitivity score (MDA-MB-468 [9]) | drug sensitivity score (Hs578T) | drug sensitivity score (HCC1937 [10]) | drug sensitivity score (MFM-223 [11]) | drug sensitivity score (HDQ-P1 [12]) | drug sensitivity score (CAL-148 [13]) | drug sensitivity score (MCF-10A [14]) | drug sensitivity score (MDA-MB-453 [15]) | drug sensitivity score (CAL-51 [16]) | drug sensitivity score (CAL-120 [17]) | drug sensitivity score (MDA-MB-468 [18])
1 | CC(C)C[C@@H](C(=O)N[C@H](C(=O)OC1CCCC1)c1ccccc1)[C@H](O)C(=O)NO [Tosedostat] | 0 | 21.8 | 0 | 0 | 10.1 | 0 | 26.6 | 0 | 2.81 | 0 | 15.2 | 13.6 | 1.52 | 9.06 | 10.1 | 0 | 20.1 | 1.64 | 8.46 | 6.14 | 5.25 | 5.14 | 0 | 14.1 | 4.55 | 12.7 | 19.1
2 | CNC(=O)c1ccc(N2C(=S)N(c3ccc(C#N)c(C(F)(F)F)c3)C(=O)C2(C)C)cc1F [Enzalutamide] | 0 | 0 | 0 | 0 | 0 | 0 | 0 | 0 | 0 | 0 | 0 | 0 | 0 | 0 | 0 | 0 | 0 | 0 | 0 | 0 | 0 | 0 | 0 | 0.159 | 6.69 | 0 | 0
3 | CCc1c2c(nc3ccc(OC(=O)N4CCC(N5CCCCC5)CC4)cc13)-c1cc3c(c(=O)n1C2)COC(=O)[C@]3(O)CC [Irinotecan] | 0 | 0 | 0 | 0 | 0 | 11.8 | 0 | 0 | 0 | 0 | 10.7 | 0.997 | 0 | 0 | 0 | 0 | 0 | 1.06 | 0 | 0 | 0 | 7.67 | 1.93 | 0 | 3.68 | 2.72 | 7.12
4 | CNC(=O)c1cc(Oc2ccc(NC(=O)Nc3ccc(Cl)c(C(F)(F)F)c3)c(F)c2)ccn1 [Regorafenib] | 3.47 | 0 | 0 | 0 | 0 | 0 | 0 | 0 | 0 | 0 | 0 | 0 | 0 | 0 | 0 | 0 | 0 | 0 | 1.28 | 6.42 | 2.22 | 0.856 | 4.48 | 2.37 | 5.7 | 1.79 | 1.92
5 | CN(C)c1nc(N(C)C)nc(N(C)C)n1 [Altretamine] | 0 | 0 | 0 | 0 | 0 | 0 | 0 | 0 | 0 | 0 | 0 | 0 | 0 | 0 | 0 | 0 | 0 | 0 | 0 | 0 | 0 | 0 | 0 | 0 | 0 | 0 | 0
6 | COc1cc2/c(=N/c3ccc(Br)cc3F)nc[nH]c2cc1OCC1CCN(C)CC1 [Vandetanib] | 0 | 0 | 0 | 0 | 1.32 | 0 | 3.15 | 0 | 0 | 0 | 0 | 0 | 0 | 0 | 0 | 0 | 0 | 0 | 0 | 0.335 | 0 | 0 | 10.3 | 0 | 0.137 | 0.197 | 4.76
